Data published in US8916599B2, “1H-benz imidazole-5-carboxamides as anti-inflammatory agents” (Orexo AB, priority 2008, dated 2014).

molecular target: T1, recombinant human mPGES-1 (Homo sapiens, UniProt O14684); assay: mPGES-1 inhibition test (microsomes, PGH2 substrate, HTRF detection of PGE2); format: biochemical; details: inhibition of mPGES-1 at 10 μM
T1 construct: made in house; host or cells: Rosetta E. coli (microsomal/membrane fraction)
T1 sequence (O14684 1-152): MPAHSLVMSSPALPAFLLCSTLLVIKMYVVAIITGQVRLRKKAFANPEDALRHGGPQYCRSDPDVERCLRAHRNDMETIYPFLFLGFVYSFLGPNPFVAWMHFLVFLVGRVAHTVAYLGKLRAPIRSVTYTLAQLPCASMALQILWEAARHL
Summary of the method: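 PGE2 formed from PGH2 in one minute by E. coli-expressed microsomal enzyme (pH 7.4, 2.5 mM GSH) was measured by competitive HTRF against a synthetic PGE2 standard curve. Compounds were preincubated 25 min at room temperature.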

**Q.** For `Cn1c(Nc2c(Cl)cccc2Cl)nc2cc(C(=O)NCc3cn4cc(Cl)ccc4n3)c(F)cc21` [Example 564, N-((6-Chloroimidazo[1,2-a]pyridin-2-yl)methyl)-2-(2,6-dichlorophenylamino)-6-fluoro-1-methyl-1H-benzimidazole-5-carboxamide], which inhibition at 10 µM is on record?
**A.** 70%

**Q.** Which inhibition at 10 µM does the source give for `Cn1c(Nc2c(Cl)cccc2Cl)nc2cc(C(=O)NCc3c(C(F)(F)F)ccc[n+]3[O-])c(F)cc21` [Example 568, 2-((2-(2,6-Dichlorophenylamino)-6-fluoro-1-methyl-1H-benzimidazole-5-carboxamido)methyl)-3-trifluoromethyl-pyridine 1-oxide] here?
**A.** 60%

**Q.** Which inhibition at 10 µM does the source give for `COc1ccnc(CNC(=O)c2cc3nc(Nc4c(Cl)cccc4Cl)n(C)c3cc2F)c1` [Example 569, 2-(2,6-Dichlorophenylamino)-6-fluoro-N-((4-methoxypyridin-2-yl)methyl)-1-methyl-1H-benzimidazole-5-carboxamide] here?
**A.** 81%

**Q.** Which inhibition at 10 µM does the source give for `CC(C)NC(=O)c1cc(Br)c2[nH]c(Nc3c(Cl)cccc3Cl)nc2c1` [Example 570, 7-Bromo-N-isopropyl-2-(2,6-dichlorophenylamino)-1H-benzimidazole-5-carboxamide] here?
**A.** 84%

**Q.** For `COCCOc1cccc(NC(=O)c2ccc3[nH]c(Nc4c(Cl)cccc4Cl)nc3c2)n1` [Example 571, 2-(2,6-Dichlorophenylamino)-N-(6-(2-methoxyethoxy)pyridin-2-yl)-1H-benzimidazole-5-carboxamide], which inhibition at 10 µM is on record?
**A.** 86%

**Q.** For `CC(C)c1ccccc1Nc1nc2cc(C(=O)Nc3ccc(Br)cc3)ccc2n1C` [Example 572, N-(4-Bromophenyl)-2-(2-isopropylphenylamino)-1-methyl-1H-benzimidazole-5-carboxamide], which inhibition at 10 µM is on record?
**A.** 45%

**Q.** For `Cn1c(Nc2cc(C(=O)O)ccc2Cl)nc2cc(C(=O)Nc3ccc(Br)cc3)ccc21` [Example 573, 3-(5-(4-Bromophenylcarbamoyl)-1-methyl-1H-benzimidazol-2-yl-amino)-4-chlorobenzoic acid], which inhibition at 10 µM is on record?
**A.** 60%

**Q.** With `CNC(=O)c1ccc(Cl)c(Nc2nc3cc(C(=O)Nc4ccc(Br)cc4)ccc3n2C)c1` [Example 574, N-(4-Bromophenyl)-2-(2-chloro-5-(methylcarbamoyl)-phenylamino)-1-methyl-1H-benzimidazole-5-carboxamide] as the compound, how does the inhibition at 10 µM read?
**A.** 56%

**Q.** `CN(C)c1cc(C(F)(F)F)cc(NC(=O)c2cc3nc(Nc4c(Cl)cc(F)cc4Cl)[nH]c3cc2OCC(F)(F)F)n1` [Example 575, 2-(2,6-Dichloro-4-fluoro-phenylamino)-N-(6-dimethylamino-4-trifluoromethyl-pyridin-2-yl)-6-(2,2,2-trifluorethoxy)-1H-benzimidazole-5-carboxamide] was tested. Which inhibition at 10 µM did it give?
**A.** 82%

**Q.** `COc1cc2[nH]c(Nc3c(Cl)cccc3Cl)nc2cc1C(=O)NCc1ncccc1C` [Example 577, 2-(2,6-Dichlorophenylamino)-6-methoxy-N-((3-methylpyridin-2-yl)-methyl)-1H-benzimidazole-5-carboxamide] was tested. Which inhibition at 10 µM did it give?
**A.** 100%

**Q.** With `Cn1c(Nc2c(Cl)cc(F)cc2Cl)nc2cc(C(=O)Nc3ccc(Br)cc3)ccc21` [Example 578, 2-(2,6-Dichloro-4-fluoro-phenylamino)-N-(4-bromo-phenyl)-1-methyl-1H-benzimidazole-5-carboxamide] as the compound, how does the inhibition at 10 µM read?
**A.** 100%

**Q.** Which inhibition at 10 µM does the source give for `COc1cc2[nH]c(Nc3c(Cl)cc(F)cc3Cl)nc2cc1C(=O)N[C@H]1CC[C@H](C(F)(F)F)CC1` [Example 579, 2-(2,6-Dichloro-4-fluoro-phenylamino)-6-methoxy-N-(trans-4-trifluoromethyl-cyclohex-1-yl)-1H-benzimidazole-5-carboxamide] here?
**A.** 100%

**Q.** With `COc1cc2[nH]c(Nc3c(Cl)cc(F)cc3Cl)nc2cc1C(=O)NCc1ncccc1C(F)(F)F` [Example 580, 2-(2,6-Dichloro-4-fluoro-phenylamino)-6-methoxy-N-((3-trifluoromethyl-pyridin-2-yl)-methyl)-1H-benzimidazole-5-carboxamide] as the compound, how does the inhibition at 10 µM read?
**A.** 100%

**Q.** With `COc1cc2[nH]c(Nc3c(Cl)cc(F)cc3Cl)nc2cc1C(=O)Nc1ccc(Br)cc1` [Example 581, 2-(2,6-Dichloro-4-fluoro-phenylamino)-6-methoxy-N-(4-bromo-phenyl)-1H-benzimidazole-5-carboxamide] as the compound, how does the inhibition at 10 µM read?
**A.** 100%

**Q.** How did the inhibition at 10 µM turn out when `O=C(Nc1ccc(Br)cc1)c1cc2nc(Nc3c(Cl)cc(F)cc3Cl)[nH]c2cc1OCC(F)(F)F` [Example 582, 2-(2,6-Dichloro-4-fluoro-phenylamino)-N-(4-bromo-phenyl)-6-(2,2,2-trifluorethoxy)-1H-benzimidazole-5-carboxamide] was run?
**A.** 100%

**Q.** For `O=C(N[C@H]1CC[C@H](C(F)(F)F)CC1)c1cc2nc(Nc3c(Cl)cc(F)cc3Cl)[nH]c2cc1OCC(F)(F)F` [Example 583, 2-(2,6-Dichloro-4-fluoro-phenylamino)-N-(trans-4-trifluoromethyl-cyclohex-1-yl)-6-(2,2,2-trifluoroethoxy)-1H-benzimidazole-5-carboxamide], which inhibition at 10 µM is on record?
**A.** 95%

**Q.** Which inhibition at 10 µM does the source give for `O=C(N[C@H]1CC[C@H](C(F)(F)F)CC1)c1cc2nc(Nc3c(Cl)cc(F)cc3Cl)[nH]c2cc1OCCF` [Example 584, 2-(2,6-Dichloro-4-fluoro-phenylamino)-N-(trans-4-trifluoro-cyclohex-1-yl)-6-(2-fluoroethoxy)-1H-benzimidazole-5-carboxamide] here?
**A.** 96%

**Q.** `O=C(Nc1ccc(Br)cc1)c1cc2nc(Nc3c(Cl)cc(F)cc3Cl)[nH]c2cc1OCCF` [Example 585, 2-(2,6-Dichloro-4-fluoro-phenylamino)-N-(4-bromo-phenyl)-6-(2-fluoroethoxy)-1H-benzimidazole-5-carboxamide] was tested. Which inhibition at 10 µM did it give?
**A.** 100%

**Q.** `O=C(Nc1ccc(Br)cc1)c1cc2nc(Nc3c(Cl)cc(F)cc3Cl)[nH]c2cc1OCC(F)F` [Example 586, 2-(2,6-Dichloro-4-fluoro-phenylamino)-N-(4-bromo-phenyl)-6-(2,2-difluoroethoxy)-1H-benzimidazole-5-carboxamide] was tested. Which inhibition at 10 µM did it give?
**A.** 100%

**Q.** With `O=C(N[C@H]1CC[C@H](C(F)(F)F)CC1)c1cc2nc(Nc3c(Cl)cc(F)cc3Cl)[nH]c2cc1OCC(F)F` [Example 587, 2-(2,6-Dichloro-4-fluoro-phenylamino)-N-(trans-4-trifluoromethyl-cyclohex-1-yl)-6-(2,2-difluoroethoxy)-1H-benzimidazole-5-carboxamide] as the compound, how does the inhibition at 10 µM read?
**A.** 97%

**Q.** `O=C(Nc1ccc(Br)cc1)c1cc2nc(Nc3c(F)ccc(Cl)c3Cl)[nH]c2cc1OCC(F)(F)F` [Example 588, N-(4-Bromo-phenyl)-2-(2,3-dichloro-6-fluoro-phenylamino)-6-(2,2,2-trifluoroethoxy)-1H-benzimidazole-5-carboxamide] was tested. Which inhibition at 10 µM did it give?
**A.** 100%

**Q.** With `O=C(N[C@H]1CC[C@H](C(F)(F)F)CC1)c1cc2nc(Nc3c(Cl)cccc3Cl)[nH]c2cc1OCC(F)(F)F` [Example 589, 2-(2,6-Dichloro-phenylamino)-6-(2,2,2-trifluoroethoxy)-N-(trans-4-trifluormethyl-cyclohex-1-yl)-1H-benzimidazole-5-carboxamide] as the compound, how does the inhibition at 10 µM read?
**A.** 100%

**Q.** Which inhibition at 10 µM does the source give for `O=C(Nc1ccc(Br)cc1)c1cc2nc(Nc3c(Cl)cccc3Cl)[nH]c2cc1OCC(F)(F)F` [Example 590, 2-(2,6-Dichloro-phenylamino)-N-(4-bromo-phenyl)-6-(2,2,2-trifluoroethoxy)-1H-benzimidazole-5-carboxamide] here?
**A.** 96%
